In PubChem BioAssay AID1208 (EPA DSSTox, 2008) one finds Potency and outcome data, which are given here for 66 molecules.

The test system of this data set is rat chronic carcinogenicity bioassay, TD50. As to the kind of experiment: DSSTox (CPDBAS) Carcinogenic Potency Database Summary Rat Bioassay Results. Particulars: for Potency: hits give low values; for outcome: TD50_Rat_Note: no positive results. The essentials:
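The activity score maps log10(1/TD50_Rat_mmol) linearly onto 1–100; actives without a computed TD50, such as mixtures, receive 50. Source data are chronic rat carcinogenicity tests, using the most positive experiment for each sex.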

The mark [1] stands for this setting: TargetSites_Rat_Female: no positive results.
[2] abbreviates: TD50_Rat_Note: TD50 is harmonic mean of more than one positive test, TargetSites_Rat_Female: liver.
The mark [3] stands for this setting: TargetSites_Rat_BothSexes: all tumor bearing animals.
[4] abbreviates: TargetSites_Rat_BothSexes: no positive results.

Activity calls are given as the source filed them.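 How the source made its calls: active means at least one rat sex group has a carcinogenic potency value and tumor site recorded; inconclusive means only rat studies were judged inadequate by the national testing program; inactive means no potency or tumor site, with negative rat experiments.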

Consider `CCSCCC(N)C(=O)O` (configuration not stated), for which the Potency (TD50_Rat_Note: TD50 is harmonic mean of more than one positive test, harmonic mean of TD50 includes a value for upper 99% confidence li) was 9.76 mg/kg/day.

For `C=CC1=C(C)C2=CC3=NC(=C(CC(=O)[O-])C4=NC(=C(C)C4=C([O-])[O-])C=c4[n-]c(c(C)c4CC)=CC1=N2)[C@@H](CCC(=O)[O-])[C@@H]3C.[Cu+2].[Na+].[Na+].[Na+]`, the outcome under setting [1] is “inactive; no positive results”.

Consider `C=C(F)F`, for which the outcome under setting [1] was “inactive; no positive results”.

On to `CN(N=O)c1ccccn1`, for which the Potency (TargetSites_Rat_Female: esophagus) was 0.214 mg/kg/day.

As for `CN(C)N=O`, where the note is “TD50_Rat_Note: TD50 is harmonic mean of more than one positive test, greater than ten-fold variation among TD50 values for positive res, TargetSites_Rat_Female: liver, vascular system”, the Potency is 0.0959 mg/kg/day.

For the molecule `C[C@]12CC[C@@H]3c4ccc(OC(=O)Cc5ccc(N(CCCl)CCCl)cc5)cc4CC[C@H]3[C@@H]1CC[C@@H]2OC(=O)Cc1ccc(N(CCCl)CCCl)cc1`, the outcome under setting [1] was “inactive; no positive results”.

Regarding `CC(=O)Oc1c(C)c(C)c2c(c1C)CCC(C)(CCCC(C)CCCC(C)CCCC(C)C)O2` (configuration not stated), the outcome under setting [1] was “inactive; no positive results”.

`COP(=S)(OC)Oc1ccc([N+](=O)[O-])cc1`: under setting [1], the outcome is “inactive; no positive results”.

As for `CC(O)CN(CC(C)O)N=O` (configuration not stated), the Potency (TD50_Rat_Note: TD50 is harmonic mean of more than one positive test, TargetSites_Rat_Female: esophagus, nasal cavity) was 0.846 mg/kg/day.

Consider `Nc1ccc(N)c(Cl)c1`, for which the outcome under setting [1] is “inactive; no positive results”.

In the case of `Cn1c(N)nc2c3cccnc3ccc21`, the Potency by setting is: (TD50_Rat_Note: TD50 is harmonic mean of more than one positive test, greater than ten-fold variation among TD50 values for positive res, TargetSites_Rat_Female: clitoral gland, ear Zymbals gland, large intestine, liver, mammary gland, oral cavity, preputial gland, skin, small inte) 0.812 mg/kg/day; (TargetSites_Rat_Female: ear Zymbals gland, liver, mammary gland, pancreas, urinary bladder, vascular system) 3.29 mg/kg/day.

For `CCCCCN(N=O)C(=O)OCC`, the Potency (TargetSites_Rat_Female: esophagus, oral cavity) is 1.01 mg/kg/day.

For the molecule `Cc1cc(Cc2ccc(N)c(C)c2)ccc1N`, the Potency under setting [2] was 7.38 mg/kg/day.

For the molecule `Cc1c(-c2cnccn2)ssc1=S`, the outcome under setting [1] is “inactive; no positive results”.

On to `O=NN1CCCCO1`, for which, under setting [3], the Potency was 24.3 mg/kg/day.

In the case of `O=S(=O)(O)c1ccc(N=Nc2cc(S(=O)(=O)O)c3ccccc3c2O)c2ccccc12`, the outcome under setting [1] was “inactive; no positive results”.

Regarding `CCOC(N)=O`, the Potency under setting [3] is 41.3 mg/kg/day.

As for `COc1ccc(C(Cl)=C(c2ccc(OC)cc2)c2ccc(OC)cc2)cc1`, the outcome under setting [1] is “inactive; no positive results”.

Consider `CC(C)(C)O`, for which the Potency under setting [1] is 64.6 mg/kg/day.

Take `C1CO1`: the Potency (TD50_Rat_Note: TD50 is harmonic mean of more than one positive test, greater than ten-fold variation among TD50 values for positive res, TargetSites_Rat_Female: nervous system, stomach) was 21.3 mg/kg/day.

Turning to `C=C/C1=C/[C@H](C)[C@](C)(OC(C)=O)C(=O)OCC2=CC[N+]3(C)CC[C@@H](OC1=O)C23[O-]` (some centres not stated), for the setting “TargetSites_Rat_BothSexes: liver, vascular system”, the Potency is 0.5 mg/kg/day.

Take `CCn1nc(C)c2c1C(c1ccccc1)=NCC(=O)N2`: the outcome under setting [1] was “inactive; no positive results”.

`C=CCl`: the Potency (TD50_Rat_Note: TD50 is harmonic mean of more than one positive test, greater than ten-fold variation among TD50 values for positive res, TargetSites_Rat_Female: ear Zymbals gland, kidney, liver, mammary gland, nasal cavity, nervous system, vascular system) is 6.11 mg/kg/day.

Turning to `C=Cc1ccccc1`, the Potency (TargetSites_Rat_Female: mammary gland) was 23.3 mg/kg/day.

With `COc1ccccc1[N+](=O)[O-]`, for the setting “TD50_Rat_Note: TD50 is harmonic mean of more than one positive test, greater than ten-fold variation among TD50 values for positive res, TargetSites_Rat_Female: hematopoietic system, kidney, large intestine, urinary bladder”, the Potency is 15.6 mg/kg/day.

Consider `CC(=O)CN(N=O)C(=O)NCCCl`, for which the outcome under setting [1] was “inactive; no positive results”.

With `Nc1ccc(-c2ccc(N)cc2)cc1`, the Potency (TargetSites_Rat_BothSexes: hematopoietic system, liver, mammary gland) was 1.73 mg/kg/day.

For the molecule `O=C1NS(=O)(=O)c2ccccc21`, the outcome is “inactive; no positive results”. Besides, the Potency (TD50_Rat_Note: TD50 is harmonic mean of more than one positive test, greater than ten-fold variation among TD50 values for positive res, TargetSites_Rat_Female: no positive results) is 2140 mg/kg/day.

Regarding `CC#N`, the outcome under setting [1] was “inactive; no positive results”.

In the case of `Cc1cc(N=Nc2ccccc2C)ccc1N`, under setting [2], the Potency is 4.04 mg/kg/day.

In the case of `CCN(Cc1cccc(S(=O)(=O)O)c1)c1ccc(C(=C2C=CC(=[N+](CC)Cc3cccc(S(=O)(=O)O)c3)C=C2)c2ccccc2S(=O)(=O)[O-])cc1`, the outcome under setting [4] was inactive.

For the molecule `C[C@@H]1CCCCN1N=O`, the Potency (TargetSites_Rat_BothSexes: nervous system) was 20.4 mg/kg/day.

Take `COC(=O)[C@H]1[C@H]2C[C@@H]3c4[nH]c5ccccc5c4CCN3C[C@H]2C[C@@H](OC(=O)c2cc(OC)c(OC)c(OC)c2)[C@@H]1OC`: under setting [4], the outcome was inactive.

As for `Cc1cc(O)ccc1O`, the outcome was “inactive; no positive results”.

Take `COc1cccc2c1cc([N+](=O)[O-])c1c(C(=O)O)cc3c(c12)OCO3`: the Potency (TD50_Rat_Note: TD50 is harmonic mean of more than one positive test, TD50_Rat_mmol was not calculated for this mixture, but Activiity S, TargetSites_Rat_Female: stomach) is 0.0141 mg/kg/day.

On to `CC1CN(N=O)CC(C)N1C(=O)c1ccccc1` (configuration not stated), for which, where the note is “TargetSites_Rat_Female: stomach”, the Potency is 9.66 mg/kg/day.

On to `OCl`, for which the outcome under setting [1] was “inactive; no positive results”.

`CN1C(=O)CN=C(c2ccccc2)c2cc(Cl)ccc21`: the outcome under setting [1] was “inactive; no positive results”.

Take `Brc1c(Br)c(Br)c(Oc2c(Br)c(Br)c(Br)c(Br)c2Br)c(Br)c1Br`: the Potency under setting [2] was 3340 mg/kg/day. In addition, the outcome under setting [1] was “inactive; no positive results”.

As to `CC1CO1` (configuration not stated), the Potency (TD50_Rat_Note: TD50 is harmonic mean of more than one positive test, greater than ten-fold variation among TD50 values for positive res, TargetSites_Rat_Female: mammary gland, nasal cavity, stomach) is 74.4 mg/kg/day.

As to `COc1cc(-c2ccc(N)c(OC)c2)ccc1N`, for the setting “TD50_Rat_Note: TD50 is harmonic mean of more than one positive test, TargetSites_Rat_Female: clitoral gland, ear Zymbals gland, large intestine, liver, mammary gland, oral cavity, skin, uterus”, the Potency is 1.04 mg/kg/day.

As to `Nc1nc(N)nc(-c2cc(Cl)ccc2Cl)n1`, the outcome was “inactive; no positive results”.

As for `CCCC[C@H](C)[C@@H](OC(=O)C[C@H](CC(=O)O)C(=O)O)[C@@H](C[C@H](C)C[C@@H](O)CCCC[C@@H](O)C[C@H](O)[C@H](C)N)OC(=O)C[C@H](CC(=O)O)C(=O)O`, the Potency (TD50_Rat_Note: TD50 is harmonic mean of more than one positive test, TargetSites_Rat_Female: no positive results) was 1.5 mg/kg/day.

For `CC1(C)[C@H](C(=O)O[C@H](C#N)c2cccc(Oc3ccccc3)c2)[C@@H]1C=C(Br)Br`, under setting [1], the outcome is “inactive; no positive results”.

For the molecule `O=C(O)CC[N+](=O)[O-]`, the outcome under setting [1] was “inactive; no positive results”.

Consider `CCCCC1C(=O)N(c2ccccc2)N(c2ccccc2)C1=O`, for which the Potency (TargetSites_Rat_Female: kidney) was 1160 mg/kg/day.

As to `Oc1c(Cl)c(Cl)c(Cl)c(Cl)c1Cl`, the outcome under setting [1] is “inactive; no positive results”. The Potency by setting is: (TargetSites_Rat_Female: liver) 13.1 mg/kg/day; under setting [1], 59 mg/kg/day.

Turning to `Nc1ccc(Cl)cc1`, under setting [1], the outcome is “inactive; no positive results” and the Potency is 7.62 mg/kg/day.

Take `CCN(CC)CC#CC(C)(C)OC(=O)C(O)(c1ccccc1)C1CCCCC1` (configuration not stated): the outcome under setting [1] is “inactive; no positive results”.

Consider `O=C(O)c1cc(N=Nc2ccc(S(=O)(=O)Nc3ccccn3)cc2)ccc1O`, for which the Potency (TD50_Rat_Note: TD50 is harmonic mean of more than one positive test, TargetSites_Rat_Female: kidney, urinary bladder) is 1590 mg/kg/day.

In the case of `Oc1cccc(O)c1`, the outcome under setting [1] is “inactive; no positive results”.

Turning to `C/C=C1/C[C@@H](C)[C@@](C)(O)C(=O)OC/C2=C/CN(C)CC[C@@H](OC1=O)C2=O`, the Potency (TD50_Rat_Note: positive test results only by intraperitoneal or intravenous injection) was 1.7 mg/kg/day.

For the molecule `CN(CCCC(=O)O)N=O`, the Potency is 0.982 mg/kg/day.

Turning to `C=C1C[C@@]23CC[C@H]4[C@@](C)(CCC[C@@]4(C)C(=O)O[C@@H]4O[C@H](CO)[C@@H](O)[C@H](O)[C@H]4O)[C@@H]2CC[C@]1(O[C@@H]1O[C@H](CO)[C@@H](O)[C@H](O)[C@H]1O[C@@H]1O[C@H](CO)[C@@H](O)[C@H](O)[C@H]1O)C3`, the outcome under setting [1] is “inactive; no positive results”.

For `Nc1ccc(N)c2c1C(=O)c1c(N)ccc(N)c1C2=O`, the Potency (TD50_Rat_Note: TD50 is harmonic mean of more than one positive test, TargetSites_Rat_Female: urinary bladder) is 156 mg/kg/day.

Regarding `COc1ccc(C)cc1N`, the Potency (TD50_Rat_Note: TD50 is harmonic mean of more than one positive test, TargetSites_Rat_Female: nasal cavity, urinary bladder) is 98 mg/kg/day.

For `ClCCl`, the Potency (TD50_Rat_Note: TD50 is harmonic mean of more than one positive test, TargetSites_Rat_Female: mammary gland) was 724 mg/kg/day.

In the case of `CN(CCCC(=O)c1cccnc1)N=O`, the Potency (TD50_Rat_Note: TD50 is harmonic mean of more than one positive test) was 0.0999 mg/kg/day.

For `CN(N=O)c1ccc([N+](=O)[O-])cc1`, the outcome is “inactive; no positive results”.

`Nc1ccc(NCCO)c([N+](=O)[O-])c1`: under setting [1], the outcome is “inactive; no positive results”.

`CNC(=O)O/N=C/C(C)(C)SC`: the outcome under setting [1] is “inactive; no positive results”.

`NC(Cc1c[nH]c2ccccc12)C(=O)O` (configuration not stated): the outcome is “inactive; no positive results”.

On to `C#C[C@]1(OC(C)=O)CC[C@H]2[C@@H]3CCC4=C[C@@H](OC(C)=O)CC[C@@H]4[C@H]3CC[C@@]21C`, for which, under setting [1], the result was inactive.

As to `COP(=S)(OC)Oc1ccc(SC)c(C)c1`, the outcome under setting [1] was “inactive; no positive results”.

On to `O=C1NC(c2ccc([N+](=O)[O-])s2)Nc2ccccc21` (configuration not stated), for which, under “TargetSites_Rat_Female: all tumor bearing animals”, the Potency is 1.53 mg/kg/day.

In the case of `C=COC(C)=O`, the Potency (TD50_Rat_Note: TD50 is harmonic mean of more than one positive test, greater than ten-fold variation among TD50 values for positive res, TargetSites_Rat_Female: liver, nasal cavity, thyroid gland, uterus) is 341 mg/kg/day.
